Key:
[1] = system: eIF4e phosphorylation in Hela cell line; test: eIF4e phosphorylation inhibition in Hela cell line; format: cell-based; details: Homo sapiens, cellular
[2] = target: MNK2 (Homo sapiens, UniProt Q9HBH9); test: MNK2 enzymatic assay; format: biochemical
[3] = target: MNK1 (Homo sapiens, UniProt Q9BUB5); test: MNK1 enzymatic assay; format: biochemical
Chain of MNK1 (Q9BUB5 whole entry): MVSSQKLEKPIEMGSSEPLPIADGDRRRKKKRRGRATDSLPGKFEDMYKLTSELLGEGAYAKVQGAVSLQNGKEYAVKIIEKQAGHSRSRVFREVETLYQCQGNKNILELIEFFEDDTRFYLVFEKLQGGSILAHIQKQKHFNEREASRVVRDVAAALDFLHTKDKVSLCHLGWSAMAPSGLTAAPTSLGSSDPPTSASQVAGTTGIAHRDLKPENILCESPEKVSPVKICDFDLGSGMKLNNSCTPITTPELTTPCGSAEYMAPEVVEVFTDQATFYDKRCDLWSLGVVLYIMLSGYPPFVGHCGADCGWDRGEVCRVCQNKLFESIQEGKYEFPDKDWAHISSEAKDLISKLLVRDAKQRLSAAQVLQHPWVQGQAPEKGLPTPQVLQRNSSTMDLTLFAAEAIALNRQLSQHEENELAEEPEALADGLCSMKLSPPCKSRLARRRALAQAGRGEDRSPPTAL

Chain of MNK2 (Q9HBH9 whole entry): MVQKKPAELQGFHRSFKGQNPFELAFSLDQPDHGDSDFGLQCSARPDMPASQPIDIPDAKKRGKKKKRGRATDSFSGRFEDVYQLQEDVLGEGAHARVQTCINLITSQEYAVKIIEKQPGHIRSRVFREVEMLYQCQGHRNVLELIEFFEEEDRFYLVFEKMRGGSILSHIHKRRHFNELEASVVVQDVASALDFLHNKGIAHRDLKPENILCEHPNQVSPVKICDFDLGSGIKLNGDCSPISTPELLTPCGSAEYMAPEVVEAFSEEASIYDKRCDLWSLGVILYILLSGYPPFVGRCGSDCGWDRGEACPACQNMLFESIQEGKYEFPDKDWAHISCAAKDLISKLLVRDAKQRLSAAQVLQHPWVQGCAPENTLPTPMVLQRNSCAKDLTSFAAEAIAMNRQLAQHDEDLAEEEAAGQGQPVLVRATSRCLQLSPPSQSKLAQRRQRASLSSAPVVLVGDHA

| SMILES | IC50 [1] [µM] | IC50 [2] [µM] | IC50 [3] [µM] |
| --- | --- | --- | --- |
| O=C(c1ccc(-c2ccc3ncc(C#Cc4ccnc(Nc5ccccn5)c4)n3n2)cc1)N1CCOCC1 [Example 048, morpholino(4-(3-((2-(pyridin-2-ylamino)pyridin-4-yl)ethynyl)imidazo[1,2-b]pyridazin-6-yl)phenyl)methanone] | < 5 | < 0.5 | < 0.5 |
| O=C(c1ccc(-c2ccc3ncc(C#Cc4ccnc(-c5ccccc5)c4)n3n2)cc1)N1CCOCC1 [Example 070, morpholino(4-(3-((2-phenylpyridin-4-yl)ethynyl)imidazo[1,2-b]pyridazin-6-yl)phenyl)methanone] | < 5 | < 0.5 | < 0.5 |
| CS(=O)(=O)Nc1cccc(C#Cc2cnc3ccc(-c4ccc(C(=O)N5CCOCC5)cc4)nn23)c1 [Example 011, N-(3-((6-(4-(morpholine-4-carbonyl)phenyl)imidazo[1,2-b]pyridazin-3-yl)ethynyl)phenyl)methane sulfonamide] | < 5 | < 0.5 | < 0.5 |
| CC(=O)Nc1cc(C#Cc2cnc3ccc(-c4ccc(C(=O)N5CCOCC5)cc4)nn23)ccn1 [Example 037, N-(4-((6-(4-(morpholine-4-carbonyl)phenyl)imidazo[1,2-b]pyridazin-3-yl)ethynyl)pyridin-2-yl)acetamide] | < 5 | < 0.5 | < 0.5 |
| O=C(c1ccc(-c2ccc3ncc(C#Cc4ccnc5[nH]ncc45)n3c2)cc1)N1CCNCC1 [Example 104, (4-(3-((1H-pyrazolo[3,4-b]pyridin-4-yl)ethynyl)imidazo[1,2-a]pyridin-6-yl)phenyl) (piperazin-1-yl)methanone] | < 5 | < 0.5 | < 0.5 |
| CC(C)c1ccccc1Nc1cc(C#Cc2cnc3ccc(-c4ccc(C(=O)N5CCOCC5)cc4)nn23)ccn1 [Example 059, (4-(3-((2-(2-isopropylphenylamino)pyridin-4-yl)ethynyl)imidazo[1,2-b]pyridazin-6-yl)phenyl)(morpholino)methanone] | < 5 | < 0.5 | < 0.5 |
| CN(c1ccccc1)c1cc(C#Cc2cnc3ccc(-c4ccc(C(=O)N5CCOCC5)cc4)nn23)ccn1 [Example 071, (4-(3-((2-(methyl(phenyl)amino)pyridin-4-yl)ethynyl)imidazo[1,2-b]pyridazin-6-yl)phenyl) (morpholino) methanone] | < 5 | < 0.5 | < 0.5 |
| Nc1cc(C#Cc2cnc3ccc(-c4ccc(C(=O)N5CCNCC5)cc4)nn23)ccn1 [Example 046, (4-(3-((2-aminopyridin-4-yl)ethynyl)imidazo[1,2-b]pyridazin-6-yl)phenyl)(piperazin-1-yl)methanone] | < 5 | < 0.5 | < 0.5 |
| Nc1cc(C#Cc2cnc3ccc(-c4ccc(C(=O)N5CCOCC5)cc4)nn23)c2cc[nH]c2n1 [Example 017, (4-(3-((6-amino-1H-pyrrolo[2,3-b]pyridin-4-yl)ethynyl)imidazo[1,2-b]pyridazin-6-yl)phenyl)(morpholino)methanone] | < 5 | < 0.5 | < 0.5 |
| Cc1ccccc1Nc1cc(C#Cc2cnc3ccc(-c4ccc(C(=O)N5CCNCC5)cc4)cn23)ccn1 [Example 106, piperazin-1-yl(4-(3-((2-(o-tolylamino)pyridin-4-yl)ethynyl)imidazo[1,2-a]pyridin-6-yl)phenyl)methanone] | < 5 | < 0.5 | < 0.5 |
| Nc1cc(C#Cc2cnc3ccc(-c4ccc(C(=O)N5CCNCC5)cc4)cn23)c2cc[nH]c2n1 [Example 111, (4-(3-((6-amino-1H-pyrrolo[2,3-b]pyridin-4-yl)ethynyl)imidazo[1,2-a]pyridin-6-yl)phenyl)(piperazin-1-yl)methanone] | < 5 | < 0.5 | < 0.5 |
| Nc1cc(C#Cc2cnc3ccc(-c4ccc(C(=O)N5CCNCC5)cc4)cn23)ccn1 [Example 108, (4-(3-((2-aminopyridin-4-yl)ethynyl)imidazo[1,2-a]pyridin-6-yl)phenyl)(piperazin-1-yl)methanone] | < 5 | < 0.5 | < 0.5 |
| O=C(c1ccc(-c2ccc3ncc(C#Cc4ccnc(Nc5ccccc5C(F)(F)F)c4)n3n2)cc1)N1CCOCC1 [Example 055, morpholino(4-(3-((2-((2-(trifluoromethyl)phenyl)amino)pyridin-4-yl)ethynyl)imidazo[1,2-b]pyridazin-6-yl)phenyl)methanone] | < 5 | < 0.5 | < 0.5 |
| O=C(c1ccc(-c2ccc3ncc(C#Cc4c(C(F)(F)F)cnc5[nH]ccc45)n3n2)cc1)N1CCOCC1 [Example 031, morpholino(4-(3-((5-(trifluoromethyl)-1H-pyrrolo[2,3-b]pyridin-4-yl)ethynyl)imidazo[1,2-b]pyridazin-6-yl)phenyl)methanone] | < 5 | < 0.5 | < 0.5 |
| Cc1ccc(Nc2cc(C#Cc3cnc4ccc(-c5ccc(C(=O)N6CCOCC6)cc5)nn34)ccn2)cc1 [Example 058, morpholino(4-(3-((2-(p-tolylamino)pyridin-4-yl)ethynyl)imidazo[1,2-b]pyridazin-6-yl)phenyl)methanone] | < 5 | < 0.5 | < 0.5 |
| CNCC(=O)Nc1cc(C#Cc2cnc3ccc(-c4ccc(C(=O)N5CCOCC5)cc4)nn23)ccn1 [Example 044, 2-(methylamino)-N-(4-((6-(4-(morpholine-4-carbonyl)phenyl)imidazo[1,2-b]pyridazin-3-yl)ethynyl)pyridin-2-yl)acetamide] | < 5 | < 0.5 | < 0.5 |
| Cn1ccc2c(C#Cc3cnc4ccc(-c5ccc(C(=O)N6CCOCC6)cc5)nn34)ccnc21 [Example 035, (4-(3-((1-methyl-1H-pyrrolo[2,3-b]pyridin-4-yl)ethynyl)imidazo[1,2-b]pyridazin-6-yl)phenyl)(morpholino) methanone] | < 5 | < 0.5 | < 0.5 |
| O=C(c1ccc(-c2ccc3ncc(C#Cc4ccnc(Nc5ncccn5)c4)n3n2)cc1)N1CCOCC1 [Example 056, morpholino(4-(3-((2-(pyrimidin-2-ylamino)pyridin-4-yl)ethynyl)imidazo[1,2-b]pyridazin-6 yl)phenyl)methanone] | < 5 | < 0.5 | < 0.5 |
| O=C(c1ccc(-c2ccc3ncc(C#Cc4ccnc(Nc5ccccc5-c5ccccc5)c4)n3n2)cc1)N1CCOCC1 [Example 060, (4-(3-((2-(biphenyl-2-ylamino)pyridin-4-yl)ethynyl)imidazo[1,2-b]pyridazin-6-yl)phenyl)(morpholino)methanone] | < 5 | < 0.5 | < 0.5 |
| O=C(c1ccc(-c2ccc3ncc(C#Cc4ccnc(Nc5ccncn5)c4)n3n2)cc1)N1CCOCC1 [Example 054, morpholino(4-(3-((2-(pyrimidin-4-ylamino)pyridin-4-yl)ethynyl)imidazo[1,2-b]pyridazin-6-yl)phenyl)methanone] | < 5 | < 0.5 | < 0.5 |
| C(#Cc1cnc2ccc(-c3ccc(CN4CCOCC4)cc3)nn12)c1ccnc2[nH]ccc12 [Example 075, 4-(4-(3-((1H-pyrrolo[2,3-b]pyridin-4-yl)ethynyl)imidazo[1,2-b]pyridazin-6-yl)benzyl)morpholine] | < 5 | < 0.5 | < 0.5 |

From US10544149B2, “Bicyclic alkyne derivatives and uses thereof” (Agency for Science, Technology and Research, priority 2013, dated 2020)
